Source: PubChem BioAssay (NCI)
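Tested at 5 concentrations; 48 h exposure; 96-well plates; endpoints linearly interpolated, else capped at highest concentration. GI50 is the concentration that inhibits growth by half. Definition used: TGI = concentration required for complete inhibition of growth.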

What was measured:
Test in all cases: NCI anticancer screen, dose series, 48 h
[1] = tested on: SNB-75 CNS
[2] = tested on: SF-268 CNS
[3] = tested on: SW-620 colon
[4] = tested on: NCI-H226 lung
[5] = tested on: MOLT-4 leukemia
[6] = tested on: A498 renal
[7] = tested on: MCF7 breast
[8] = tested on: KM12 colon
[9] = tested on: K-562 leukemia
[10] = tested on: UACC-62 melanoma
[11] = tested on: OVCAR-8 ovarian
[12] = tested on: CAKI-1 renal
[13] = tested on: TK-10 renal
[14] = tested on: LOX IMVI melanoma
[15] = tested on: SR leukemia
[16] = tested on: A549 NSCLC
[17] = tested on: PC-3 prostate
[18] = tested on: T-47D breast
[19] = tested on: SK-MEL-5 melanoma
[20] = tested on: DU-145 prostate
[21] = tested on: HOP-62 NSCLC
[22] = tested on: RXF 393 renal
[23] = tested on: OVCAR-5 ovarian
[24] = tested on: HT29 colon
[25] = tested on: NCI-H522 lung
[26] = tested on: BT-549 breast
[27] = tested on: COLO 205 colon

## Cc1ccc(N2CCN(C3=C(Cl)C(=O)c4ncccc4C3=O)CC2)cc1
[1]
  GI50: 12.8 µM
  TGI: 33.3 µM
[2]
  GI50: 5.91 µM
  TGI: 22.2 µM
[3]
  GI50: 1.47 µM
  TGI: 3.08 µM
[4]
  GI50: 10.1 µM
  TGI: 26.5 µM
[5]
  GI50: 2.09 µM
  TGI: 5.59 µM
[6]
  GI50: 15 µM
  TGI: 28.4 µM
[7]
  GI50: 1.22 µM
  TGI: 3.23 µM
[8]
  GI50: 17.5 µM
  TGI: 32 µM
[9]
  GI50: 1.35 µM
  TGI: 8.53 µM
[10]
  GI50: 1.84 µM
  TGI: 3.6 µM
[11]
  GI50: 1.6 µM
  TGI: 2.99 µM
[12]
  GI50: 1.68 µM
  TGI: 3.09 µM
[13]
  GI50: 7.15 µM
  TGI: 18.1 µM
[14]
  GI50: 1.52 µM
  TGI: 2.91 µM
[15]
  GI50: 0.504 µM
  TGI: 4.8 µM
[16]
  GI50: 15 µM
  TGI: 33.3 µM
[17]
  GI50: 2.85 µM
  TGI: 11.9 µM
[18]
  GI50: 1.61 µM
  TGI: 4.04 µM
[19]
  GI50: 1.86 µM
  TGI: 3.77 µM
[20]
  GI50: 6.05 µM
  TGI: 18.3 µM
[21]
  GI50: 15.4 µM
  TGI: 29.4 µM
[22]
  GI50: 1.79 µM
  TGI: 3.23 µM
[23]
  GI50: 3.36 µM
  TGI: 11.4 µM
[24]
  GI50: 5.05 µM
  TGI: 19.3 µM
[25]
  GI50: 1.76 µM
  TGI: 3.53 µM
[26]
  GI50: 5.51 µM
  TGI: 17.3 µM
[27]
  GI50: 1.84 µM
  TGI: 3.33 µM
